Assay results reported in US6020328A, “20-keto-11β-arylsteroids and their derivatives having agonist or antagonist hormonal properties” (Research Triangle Institute, priority 1998, dated 2000).

How the values were obtained:
[1] = system: rabbits; conditions: in words; Cook et al., Human Reproduction 1994; cited from earlier work
[2] = system: rabbits; assay: McGinty test (agonist, test compound alone); format: in vivo, rabbit
Experimental: (§2) Progestational activity and antiprogestational activity were determined in rabbits by means of the McGinty test (test compound alone, procedure of McGinty et al., Endocrinology, 24:829-832 (1939)) or anti-McGinty test (test compound plus progesterone, procedure of Tamara et al., Jpn. J. Fertil. Steril. 24:48-81 (1979)). Results were scored according to McPhail (McPhail, J. Physiol., 83:146 (1934)).

[3] = target: progestin receptor (hPR); assay: progestin receptor binding; conditions: cytosol from human T-47D breast cells; [3H]-R5020; read-out: Receptor Binding Affinity hPR IC50
Excerpt: However, the receptors were of human origin and a different radioligand was used. Thus, for progestin receptor binding the receptor was obtained in cytosol from human T-47D breast cells and [^3 H]-R5020 was used as the radioligand. Data are expressed as IC50 values, i.e., the concentration of compound that inhibits the radioligand binding by 50%.

[4] = system: Ishikawa human endometrial adenocarcinoma cell line; assay: anti-estrogenic activity in Ishikawa cells (block of estrogen-stimulated alkaline phosphates activity); format: cell-based
[5] = system: immature female rabbits; assay: anti-estrogenic activity in vivo (uterine weight); set-up: species or system rabbit; conditions: test compound 10 mg/day oral + 5 μg estradiol per day
Experimental: Steril. 52: 1055-1060 (1989). […] The weight of uteri from untreated immature rabbits was increased from 246±87 (S.E.) mg with no estradiol to 1402±104 mg with estradiol alone. Concurrent treatment of rabbits with estradiol and 10 mg/day of 17α-acetoxy-11β-(4-(N-piperidino)phenyl)-19-norpregna-4,9-diene-3,20-dione reduced the uterine weights to 998±98 mg. Likewise 17α-acetoxy-11β-(4-N-pyrrolidino)phenyl)-19-norpregna-4,9-diene-3,20-dione at 10 mg/day reduced the uterine weight to 919±115 mg, and 17α-acetoxy-11β-(1-methyl-5-indolyl)-19-norpregna-4,9-diene-3,20-dione reduced uterine weight to 956±115 mg at the same dose.

[6] = system: immature male rats; assay: antiglucocorticoid activity in vivo (thymus weight); set-up: species or system rat
Experimental: The ability of the compounds to block the effects of dexamethasone (6 μg per day for 7 days) on thymus weight of immature male rats was assessed.

[7] = system: Human T-47D breast cells; assay: T-47D cell proliferation, antagonist format (inhibition of 0.15 nM R5020-mediated proliferation); format: cell-based; conditions: T47D; for EC50: inhibition of 0.15 nM R5020-mediated proliferation, N.D. not detected; for Emax: maximum % inhibition, 0.15 nM R5020, read-out: Cell Proliferation Antagonist maximum % Inhib.
Experimental: (§1) Human T-47D breast cells grown in nutrient media were incubated with the standard progestin R5020 alone or with R5020 plus test compound and then assessed by standard procedures for proliferation using incorporation of [^3 H]-thymidine as the measurement. […] The maximum % inhibition (a measure of the efficacy of the compounds) is also given. In the agonist format of this assay the compounds were tested at concentrations ranging from 0.01 to 10 nM and the maximum % stimulation at any dose is listed in Table 2. […] However, the presence of a very polar hydroxyl group in the 17α-position greatly diminishes antiprogestational activity and this holds even when the OH is separated from the 17-carbon atom by a methylene group.

[8] = system: Human T-47D breast cells; assay: T-47D cell proliferation, agonist format; format: cell-based; conditions: T47D, 0.01 to 10 nM, maximum at any dose, read-out: Cell Proliferation Agonist maximum % Stim.
Experimental: as §1

[9] = system: immature New Zealand white rabbits; assay: anti-Clauberg assay for oral antiprogestational activity; format: in vivo, rabbit
Experimental: In this assay immature New Zealand white rabbits were primed with estrogen by treatment with estradiol for six days. They were then given progesterone subcutaneously (SC) and the test compound (orally) for 5 days. On the day following the treatment, the uteri were excised and examined histologically. The endometrial response was graded by the method of McPhail and the % inhibition was determined at each dose. Statistical analysis provides for an ED50 value.

[10] = target: T1, androgen receptor (Rattus norvegicus, UniProt P15207); assay: androgen receptor binding
T1 construct: using the cytosolic receptor from rat central prostate; from tissue
T1 sequence (P15207 1-902): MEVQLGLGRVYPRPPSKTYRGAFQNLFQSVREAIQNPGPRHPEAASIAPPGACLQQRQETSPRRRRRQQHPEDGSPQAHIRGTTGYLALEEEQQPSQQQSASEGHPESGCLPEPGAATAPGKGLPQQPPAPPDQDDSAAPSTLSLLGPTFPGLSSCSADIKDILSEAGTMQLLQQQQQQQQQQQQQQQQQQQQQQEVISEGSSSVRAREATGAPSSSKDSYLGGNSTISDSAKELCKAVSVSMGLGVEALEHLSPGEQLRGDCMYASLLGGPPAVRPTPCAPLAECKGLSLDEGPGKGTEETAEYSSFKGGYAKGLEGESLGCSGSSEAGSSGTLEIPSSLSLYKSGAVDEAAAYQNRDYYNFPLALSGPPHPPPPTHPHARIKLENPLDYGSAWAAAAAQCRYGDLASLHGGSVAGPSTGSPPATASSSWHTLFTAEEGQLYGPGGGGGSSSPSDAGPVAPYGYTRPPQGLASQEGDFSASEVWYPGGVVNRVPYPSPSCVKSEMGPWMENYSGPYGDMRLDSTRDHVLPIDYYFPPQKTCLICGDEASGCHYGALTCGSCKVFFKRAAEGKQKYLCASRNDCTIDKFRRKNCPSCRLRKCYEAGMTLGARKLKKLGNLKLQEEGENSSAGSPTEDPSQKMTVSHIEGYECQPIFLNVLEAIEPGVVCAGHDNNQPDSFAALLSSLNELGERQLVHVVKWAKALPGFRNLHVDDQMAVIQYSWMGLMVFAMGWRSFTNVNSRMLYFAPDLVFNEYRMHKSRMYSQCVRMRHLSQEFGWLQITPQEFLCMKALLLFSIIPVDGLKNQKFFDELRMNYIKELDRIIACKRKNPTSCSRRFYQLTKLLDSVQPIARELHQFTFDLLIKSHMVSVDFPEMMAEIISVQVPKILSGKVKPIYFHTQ

[11] = system: rabbits; assay: anti-McGinty test (antagonist, test compound plus progesterone); format: in vivo, rabbit; conditions: in words
Experimental: as §2

Row | Compound | McPhail Index, McGinty Assay (Agonist) ([2]; dose 0.3 micrograms) | McPhail Index, McGinty Assay (Agonist) ([2]; dose 3 micrograms) | McPhail Index, McGinty Assay (Agonist) ([2]; dose 30 micrograms) | IC50 [3] | uterine weight [5] | EC50 [7] | Emax [7] | Emax [8] | also measured
1 | CC(=O)O[C@]1(C(C)=O)CC[C@H]2[C@@H]3CCC4=CC(=O)CCC4=C3[C@@H](c3ccc(N(C)C)cc3)C[C@@]21C [17α-acetoxy-11β-(4-(N,N-dimethylamino)phenyl)-19-norpregna-4,9-diene-3,20-dione] |  |  |  |  |  |  |  |  | antiprogestational activity [1]: potent antiprogestational activity
2 | CC(=O)O[C@]1(C(C)=O)CC[C@H]2[C@@H]3CCC4=CC(=O)CCC4=C3[C@@H](c3ccc4c(ccn4C)c3)C[C@@]21C [I 1-methylindol-5-yl O H --O--CO--CH3 H, 17α-Acetoxy-11β-(1-methylindol-5-yl)-19-norpregna-4,9-diene-3,20-dione] | 0 +/- 0 | 0 +/- 0 | 0 +/- 0 | 2.4 nM | 956 ± 115 mg | 0.7 nM | 110% | 17% | anti-estrogenic activity in the Ishikawa cell assay ([4]; in words, concentration not given): inactive; thymus weight ([6]; 6 μg dexamethasone + 1,000 μg test compound per day, 7 days): 105 ± 8 mg; antiglucocorticoid activity ([6]; 1000 μg per day, in words): little or no antiglucocorticoid activity in vivo; glucocorticoid activity ([6]; compound given alone, in words): Neither did it show significantglucocorticoid activity; thymus weight ([6]; test compound given alone): 270 ± 13 mg
3 | CC(=O)O[C@]1(C(C)=O)CC[C@H]2[C@@H]3CCC4=CC(=O)CCC4=C3[C@@H](c3ccc(N4CCCCC4)cc3)C[C@@]21C [I 4-(N-piperidino) H O H --O--CO--CH3 H, 17α-Acetoxy-11β-[4-(N-piperidino)phenyl]-19-norpregna-4,9-diene-3,20-dione] | 0.1 +/- 0.1 | 0 +/- 0 | 0.2 +/- 0.1 | 1.2 nM | 998 ± 98 mg | 0.2 nM | 117% | 0% | anti-estrogenic activity in the Ishikawa assay ([4]; concentrations up to 10^-6 M): inactive; ED50, anti-Clauberg assay ([9]; 5 days, with progesterone SC): 0.9 mg/day; potency relative to mifepristone ([9]; more potent than mifepristone): about 5 fold; effectiveness in inhibiting the endometrial response ([9]; with progesterone SC): 100%
4 | CN(C)c1ccc([C@H]2C[C@@]3(C)[C@@H](CC[C@@]34OC(=O)CCC4=O)[C@@H]3CCC4=CC(=O)CCC4=C32)cc1 [II 4-Me2 N H O H -- H H H, 11β-[4-(N,N-dimethylamino)phenyl]-3,20-dioxo-17α-hydroxy-19,21-dinorchola-4,9-dien-24-oic acid δ-lactone] | 0 +/- 0 | 0 +/- 0 | 0 | 11.9 nM |  |  |  |  | IC50 ([10]; cytosolic receptor from rat central prostate, [3H]-5α-dihydrotestosterone): 90 nM; androgen receptor affinity ([10]; in words): very low affinity; antiprogestational activity, anti-McGinty test [11]: potent antiprogestational activity; progestational activity, McGinty test ([2]; in words): no evidence of progestational activity
